Experimental data from patent US9770407B2 (Lundbeck Pharmaceuticals LLC, priority 2005, dated 2017).
In brackets after ≈: the same amount, converted by molar mass. Several values for one entry are separate records, joined by “and”; a condition that tells them apart may be missing. Equal entries are not always repeated.

Tests used:
[1] = Steady-state trough concentrations, oral observed vs IV predicted by the method of superposition; type: in vivo, human
Experimental: The most relevant factor in considering the dose adjustment for intravenously administered CBZ is for treatment centers to maintain plasma concentrations of CBZ above the therapeutic threshold. Following administration of 100 mg of IV CBZ, observed plasma concentrations followed a […] decay indicating a very fast distribution to tissues followed by a slower elimination of drug out of the body. Steady-state plasma concentrations of IV CBZ were predicted using the method of superposition. Plasma concentrations following a single dose of IV CBZ were scaled-up to steady-state conditions, assuming linear pharmacokinetics, using an accumulation ratio, a mean F of 0.7, and correcting for dose (see Equations 1 and 2). As a result, this calculation allows for a comparison of steady-state trough plasma concentrations following oral (Co and IV (C6 hr) administration of CBZ respectively assuming a dosing interval of once every six hours for the IV formulation.
[formula] Where Cpss(IV) is the plasma concentration (C) at steady state for IV administration; CpsD is the plasma concentration after a single dose; Int is the y-intercept resulting from linear regression of the elimination phase; λ is the terminal elimination rate constant; Dpo is the total oral daily dose; DIV is the single IV dose; F is the absolute bioavailability; T is the dosing interval; and t is the time of each observed concentration.

[2] = Estimated dissociation of CBZ from the inclusion complex on dilution in blood; details: based on simulations of dilution effects; assumes no interaction from endogenous agents
Description: These relatively weak associations are within the range (100-20,000 M^−1) of those commonly seen with drug: cyclodextrin complexes (Crit. Rev. Ther. Drug Carrier Systems, 14 (1): 1-104, 1997).
The minimal volume of distribution of a drug administered intravenously is based on the plasma volume, which is approximately 5% of the body weight. Therefore, in a 70 kg subject, the plasma volume is approximately 3.5 L. Alternatively, one could assume that the volume of distribution is extracellular water, accounting for approximately 30% of the total body weight, in which case the volume of distribution is about 21 L.
If a 20 mL dose were administered, the dilution ranges from 175-1,050-fold.
Based on the simulations of dilution effects, it appears that 70-95% of the CBZ will immediately dissociate from the inclusion complex in the blood if one assumes no interaction from endogenous agents.

[3] = Phase solubility of CBZ in aqueous Captisol and aqueous Cavitron; type: physicochemical; details: for Measured CBZ conc: ambient laboratory temperature
Experimental: The percent weight/volume cyclodextrin solutions were prepared by adding the appropriate amount of cyclodextrin to a flask and filling to the desired total volume (10 mL) with water, as shown in the following Table 4. An excess of carbamazepine was added to each eppendorf tube. Appropriate vehicles were added to each tube and the final volumes were 1 mL. The solubility of CBZ was determined at ambient laboratory temperatures in various concentrations of aqueous Captisol and aqueous Cavitron (brand names of modified cyclodextrins useful in the present invention). The drug substance was added to a microcentrifuge tube and the appropriate vehicle was added. Periodically, the samples were centrifuged and then an aliquot was removed from the supernatant, diluted as necessary and assayed by HPLC to determine the concentration. The phase solubility was evaluated at least three times during each experiment to insure that the mixture achieved equilibrium. […] The solubilities reported in Table 5 are the average of two or three concentration determinations obtained during the respective time course.

[4] = clinical; details: human, in vivo
[5] = immediate release and extended release tablets; previously estimated; cited from earlier work

SMILES: NC(=O)N1c2ccccc2C=Cc2ccccc21 [Carbamazepine, 5H-dibenz[b,f]azepine-5-carboxamide]
- statistical comparison of trough values following oral and IV administration ([1]; 6-hour time-point, α=0.10, p=0.1931): not statistically different
- statistical comparison of trough values following oral and IV administration ([1]; 12-hour time-point, post-dose): significantly different
- Difference Between the Means ([1]; Co (oral only) vs C6 hr (IV only), N=62): 0.09456
- concentration at 6 h ([1]; human, plasma, 100 mg, predicted by superposition, IV every six hours, mean F=0.70, N=62, read-out: C6 hr (IV only), mean steady-state plasma concentration at the 6-hour time-point): 8040 ng/mL
- Co (oral only), mean oral steady-state trough plasma concentration ([1]; observed, oral twice daily dosing, n=62 evaluable subjects): 8.98 µg/mL
- CBZ that will immediately dissociate from the inclusion complex in the blood [2]: 70-95%
- Measured CBZ conc ([3]; Captisol 0% w/v, CBZ source Orgamol): 0.2 mg/mL
- Measured CBZ conc ([3]; Captisol 0% w/v, CBZ source Spectrum): 0.2 mg/mL
- Measured CBZ conc, Ave ([3]; Captisol 0% w/v, average of the three determinations): 0.2 mg/mL
- Measured CBZ conc ([3]; Captisol 5% w/v, CBZ source Orgamol, listed as CBZ): 2.2 mg/mL and 2.4 mg/mL
- Measured CBZ conc ([3]; Captisol 5% w/v, CBZ source Spectrum): 2.4 mg/mL
- Measured CBZ conc, Ave ([3]; Captisol 5% w/v, average of the three determinations): 2.3 mg/mL
- Measured CBZ conc ([3]; Captisol 10% w/v, CBZ source Orgamol, listed as CBZ): 4.1 mg/mL and 4.6 mg/mL
- Measured CBZ conc ([3]; Captisol 10% w/v, CBZ source Spectrum): 6.2 mg/mL
- Measured CBZ conc, Ave ([3]; Captisol 10% w/v, average of the three determinations): 5.0 mg/mL
- Measured CBZ conc ([3]; Captisol 15% w/v, CBZ source Orgamol, listed as CBZ): 6.4 mg/mL and 7.7 mg/mL
- Measured CBZ conc ([3]; Captisol 15% w/v, CBZ source Spectrum): 6.9 mg/mL
- Measured CBZ conc, Ave ([3]; Captisol 15% w/v, average of the three determinations): 7.0 mg/mL
- Measured CBZ conc ([3]; Captisol 20% w/v, CBZ source Orgamol, listed as CBZ): 9.2 mg/mL and 10.3 mg/mL
- Measured CBZ conc ([3]; Captisol 20% w/v, CBZ source Spectrum): 9.4 mg/mL
- Measured CBZ conc, Ave ([3]; Captisol 20% w/v, average of the three determinations): 9.6 mg/mL
- Measured CBZ conc ([3]; Captisol 25% w/v, CBZ source Orgamol, listed as CBZ): 11.4 mg/mL and 12.3 mg/mL
- Measured CBZ conc ([3]; Captisol 25% w/v, CBZ source Spectrum): 11.8 mg/mL
- Measured CBZ conc, Ave ([3]; Captisol 25% w/v, average of the three determinations): 11.8 mg/mL
- Measured CBZ conc ([3]; Captisol 30% w/v, CBZ source Orgamol, listed as CBZ): 13.5 mg/mL and 15.2 mg/mL
- Measured CBZ conc ([3]; Captisol 30% w/v, CBZ source Spectrum): 14.6 mg/mL
- Measured CBZ conc, Ave ([3]; Captisol 30% w/v, average of the three determinations): 14.4 mg/mL
- Measured CBZ conc ([3]; Captisol 35% w/v, CBZ source Orgamol, listed as CBZ): 15.9 mg/mL and 18.4 mg/mL
- Measured CBZ conc ([3]; Captisol 35% w/v, CBZ source Spectrum): 16.3 mg/mL
- Measured CBZ conc, Ave ([3]; Captisol 35% w/v, average of the three determinations): 16.9 mg/mL
- Measured CBZ conc ([3]; Captisol 40% w/v, CBZ source Orgamol, listed as CBZ): 18.3 mg/mL and 20.8 mg/mL
- Measured CBZ conc ([3]; Captisol 40% w/v, CBZ source Spectrum): 19.3 mg/mL
- Measured CBZ conc, Ave ([3]; Captisol 40% w/v, average of the three determinations): 19.5 mg/mL
- Measured CBZ conc ([3]; Captisol 45% w/v, CBZ source Orgamol, listed as CBZ): 20.6 mg/mL and 22.5 mg/mL
- Measured CBZ conc ([3]; Captisol 45% w/v, CBZ source Spectrum): 21.8 mg/mL
- Measured CBZ conc, Ave ([3]; Captisol 45% w/v, average of the three determinations): 21.6 mg/mL
- Measured CBZ conc ([3]; Captisol 50% w/v, CBZ source Orgamol, listed as CBZ): 22.5 mg/mL and 24.8 mg/mL
- Measured CBZ conc ([3]; Captisol 50% w/v, CBZ source Spectrum): 26.6 mg/mL
- Measured CBZ conc, Ave ([3]; Captisol 50% w/v, average of the three determinations): 24.6 mg/mL
- Measured CBZ conc ([3]; Cavitron 0% w/v, CBZ source Orgamol): 0.2 mg/mL
- Measured CBZ conc ([3]; Cavitron 0% w/v, CBZ source Spectrum): 0.3 mg/mL
- Measured CBZ conc ([3]; Cavitron 5% w/v, CBZ source Orgamol, listed as CBZ): 2.7 mg/mL and 3.0 mg/mL
- Measured CBZ conc ([3]; Cavitron 5% w/v, CBZ source Spectrum): 3.8 mg/mL
- Measured CBZ conc, Ave ([3]; Cavitron 5% w/v, average of the three determinations): 3.2 mg/mL
- Measured CBZ conc ([3]; Cavitron 10% w/v, CBZ source Orgamol, listed as CBZ): 5.4 mg/mL and 5.6 mg/mL
- Measured CBZ conc ([3]; Cavitron 10% w/v, CBZ source Spectrum): 4.1 mg/mL
- Measured CBZ conc, Ave ([3]; Cavitron 10% w/v, average of the three determinations): 5.0 mg/mL
- Measured CBZ conc ([3]; Cavitron 15% w/v, CBZ source Orgamol, listed as CBZ): 8.2 mg/mL and 8.4 mg/mL
- Measured CBZ conc ([3]; Cavitron 15% w/v, CBZ source Spectrum): 12.3 mg/mL
- Measured CBZ conc, Ave ([3]; Cavitron 15% w/v, average of the three determinations): 9.6 mg/mL
- Measured CBZ conc ([3]; Cavitron 20% w/v, CBZ source Orgamol, listed as CBZ): 10.9 mg/mL and 11.1 mg/mL
- Measured CBZ conc ([3]; Cavitron 20% w/v, CBZ source Spectrum): 16.4 mg/mL
- Measured CBZ conc, Ave ([3]; Cavitron 20% w/v, average of the three determinations): 12.8 mg/mL
- Measured CBZ conc ([3]; Cavitron 25% w/v, CBZ source Orgamol, listed as CBZ): 14.0 mg/mL and 14.3 mg/mL
- Measured CBZ conc ([3]; Cavitron 25% w/v, CBZ source Spectrum): 14.8 mg/mL
- Measured CBZ conc, Ave ([3]; Cavitron 25% w/v, average of the three determinations): 14.4 mg/mL
- Measured CBZ conc ([3]; Cavitron 30% w/v, CBZ source Orgamol, listed as CBZ): 15.9 mg/mL and 16.2 mg/mL
- Measured CBZ conc ([3]; Cavitron 30% w/v, CBZ source Spectrum): 17.9 mg/mL
- Measured CBZ conc, Ave ([3]; Cavitron 30% w/v, average of the three determinations): 16.7 mg/mL
- Measured CBZ conc ([3]; Cavitron 35% w/v, CBZ source Orgamol, listed as CBZ): 18.1 mg/mL and 19.9 mg/mL
- Measured CBZ conc ([3]; Cavitron 35% w/v, CBZ source Spectrum): 20.7 mg/mL
- Measured CBZ conc, Ave ([3]; Cavitron 35% w/v, average of the three determinations): 19.6 mg/mL
- Measured CBZ conc ([3]; Cavitron 40% w/v, CBZ source Orgamol, listed as CBZ): 22.5 mg/mL and 22.0 mg/mL
- Measured CBZ conc ([3]; Cavitron 40% w/v, CBZ source Spectrum): 23.2 mg/mL
- Measured CBZ conc, Ave ([3]; Cavitron 40% w/v, average of the three determinations): 22.6 mg/mL
- Measured CBZ conc ([3]; Cavitron 45% w/v, CBZ source Orgamol, listed as CBZ): 25.5 mg/mL and 25.7 mg/mL
- Measured CBZ conc ([3]; Cavitron 45% w/v, CBZ source Spectrum): 27.3 mg/mL
- Measured CBZ conc, Ave ([3]; Cavitron 45% w/v, average of the three determinations): 26.2 mg/mL
- Measured CBZ conc ([3]; Cavitron 50% w/v, CBZ source Orgamol, listed as CBZ): 27.8 mg/mL and 28.0 mg/mL
- Measured CBZ conc ([3]; Cavitron 50% w/v, CBZ source Spectrum): 31.5 mg/mL
- Measured CBZ conc, Ave ([3]; Cavitron 50% w/v, average of the three determinations): 29.1 mg/mL
- solubility thermodynamic ([3]; aqueous Cavitron, water, thermodynamic from solid, Cavitron 0% w/v, average of the three determinations, read-out: Measured CBZ conc, Ave): 200 µg/mL (≈ 846 µM)
- CBZ solubility in Cavitron as compared to Captisol ([3]; at most cyclodextrin concentrations, FIG. 1A): marginally improved in Cavitron
- AUC ([4]; iv, 100 mg, AUC 0-° o): 36500 ng·h/mL
- clearance ([4]; iv, CL): 0.6 mL/min/kg
- AUC ([4]; po, AUCss (po)): 87200 ng·h/mL
- bioavailability ([4]; po, absolute bioavailability of oral CBZ during maintenance therapy centers around): 70 to 75%
- bioavailability ([4]; po, average oral bioavailability): 65 to 75%
- absolute bioavailability [5]: 75-85
